Measured values reported in patent US8835466B2, “Synthesis and uses of pyroglutamic acid derivatives” (Prodimed, S.A., priority 2006, dated 2014).

Assays:
[1] = system: KLN 205 cells (lung cell carcinoma); experiment: Effect of 9d in combination with Cisplatin on tumour growth, KLN 205 (Example 11); format: in vivo, DBA/2 mice; conditions: for Tumour surface, overall values (Mean) / Tumour surface, overall values (Median) / Tumour volume, overall values (Mean) / Tumour volume, overall values (Median): 9d 250 ng, Cisplatin 65 μg i.p. days 3, 6, 10, 13, 17, 20
Description: This was carried out by measuring two perpendicular diameters (d1/d2) with a calliper. These measures were used to obtain both tumour surface and volume: […] Results were expressed as single values and/or as the mean±SD or median from each experimental group. This assay was made in order to check the effect on in vivo tumour growth in mice challenged with KLN 205 cells. Their effect was compared with the combination of Cisplatin plus 9d and/or placebo. KLN 205 is a lung cell carcinoma originated in DBA/2 mouse strain, and therefore syngeneic in mice with DBA/2 genetic background (Kaneko T and […]. Growth characteristics and drug responses of a murine lung carcinoma in vitro and in vivo. Cancer Res. 38: 2084-2090; 1978). KLN 205 cells (CLS, Eppelheim, Germany) were maintained in vitro by serial passages every 3-4 days. […] Louis, Mo., USA) by seeding 5×10^6 cells onto 75 cm^2 culture flasks. Subcultures were carried out by collecting detached cells after treatment with trypsin-EDTA (Sigma, St. Louis, Mo., USA). Tumour cells, collected from 48 hour cultures, were used as source of KLN 205 cells for the studies described below. […] Tumours were established by subcutaneous inoculation in the right hind flank. Mice (DBA/2) were inoculated with 0.2 mL containing 2×10^5 viable KLN 205 cells. The day of subcutaneous inoculation will be considered Day 0 of the test. A case-control study was performed with treated and control mice in order to determine whether differences between placebo, 9d, Cisplatin or 9d+Cisplatin were present. […] The t-test was chosen for being one of the better known parametrical tests.

[2] = system: Lewis lung cells (lung cell carcinoma); experiment: Effect of 9d in combination with Cisplatin on tumour growth, Lewis lung (Example 13); format: in vivo, C57BL/6J mice; conditions: for SURFACE Overall values (Mean) / SURFACE Overall values (Median) / VOLUME Overall values (Mean) / VOLUME Overall values (Median): Cisplatin 65 μg, or both
Text: This assay was made in order to check the effect on in vivo tumour growth in mice challenged with Lewis lung cells. Their effect will be compared with the combination of chemotherapeutic agents plus 9d and/or placebo. Lewis Lung is a lung cell carcinoma originated in C57BL/6J mice strain, and therefore syngeneic in mice with C57BL/6J genetic background (Rodrigo Garzón M, Tirapu Fernández de la Cuesta […], Noel […] and […]. Use of Gene Therapy in a Subcutaneous Murine Model of Lung Cancer. Arch Bronconeumology. 42: 526-532; 2006). Lewis lung cells (CLS, Eppelheim, Germany) were maintained in vitro by serial passages every 3-4 days. […] Louis, Mo., USA) by seeding 5×10^6 cells onto 75 cm^2 culture flasks. Subcultures were carried out by collecting detached cells after treatment with trypsin-EDTA (Sigma, St. Louis, Mo., USA). Tumour cells, collected from 48 hour cultures, were used as source of Lewis Lung cells for the studies described below. […] Tumours were established by subcutaneous inoculation in the right hind flank. Mice were inoculated with 0.2 mL containing 2×10^5 viable cells. The day of subcutaneous inoculation will be considered Day 0 of the test. Mice were observed daily and the tumour size recorded twice a week. This was carried out by measuring two perpendicular diameters (d1/d2) with a calliper. These measures were used to obtain both tumour surface and volume: […] Results were expressed as single values and/or as the mean±SD or median from each experimental group. A case-control study was performed with treated and control mice in order to determine whether differences between placebo, 9d, Cisplatin or 9d+Cisplatin were present. The data obtained (tumour surface and volume) were tested for Normal distribution within the groups (Kolmogorov Smirnov test p<0.05). […] The U-test of Mann Withney was chosen for being one of the better known non-parametrical tests, anyway, results for this test are equivalent both to those of Wilcoxon's sum of ranges and Kruskal-Wallis two-groups test. We excluded of the study animals that have undetectable or unscored tumour on 31th day after tumour inoculation. Due to the high dispersion of data, outlayers were excluded of the study.

[3] = day 10 after tumour inoculation
[4] = day 13 after tumour inoculation
[5] = day 17 after tumour inoculation
[6] = day 20 after tumour inoculation
[7] = day 24 after tumour inoculation
[8] = day 27 after tumour inoculation
[9] = day 31 after tumour inoculation
[10] = day 34 after tumour inoculation
[11] = day 38 after tumour inoculation
[12] = 9d 250 ng, day 0 after tumour inoculation
[13] = 9d 250 ng, day 10 after tumour inoculation
[14] = 9d 250 ng, day 13 after tumour inoculation
[15] = 9d 250 ng, day 17 after tumour inoculation
[16] = 9d 250 ng, day 20 after tumour inoculation
[17] = 9d 250 ng, day 24 after tumour inoculation
[18] = 9d 250 ng, day 27 after tumour inoculation
[19] = 9d 250 ng, day 31 after tumour inoculation

SMILES: Br.N[C@]1(C[n+]2ccccc2)C[C@H](C(=O)O)NC1=O.[Br-] (single isomer, unassigned; isomer 4) [isomer 4, 3S,5R-1-(3-Amino-5-carboxy-2-oxopyrrolidin-3-ylmethyl)pyridinium bromide hidrobromide]
- Tumour surface, overall values (Mean) ([1]; day 0 after tumour inoculation): 0 mm^2
- Tumour surface, overall values (Median) ([1]; day 0 after tumour inoculation): 0 mm^2
- Tumour volume, overall values (Mean) ([1]; day 0 after tumour inoculation): 0 mm^3
- Tumour volume, overall values (Median) ([1]; day 0 after tumour inoculation): 0 mm^3
- Tumour surface, overall values (Mean) [1, 3]: 5.38 mm^2
- Tumour surface, overall values (Median) [1, 3]: 4 mm^2
- Tumour volume, overall values (Mean) [1, 3]: 8.81 mm^3
- Tumour volume, overall values (Median) [1, 3]: 4 mm^3
- Tumour surface, overall values (Mean) [1, 4]: 17.25 mm^2
- Tumour surface, overall values (Median) [1, 4]: 16 mm^2
- Tumour volume, overall values (Mean) [1, 4]: 43.38 mm^3
- Tumour volume, overall values (Median) [1, 4]: 32 mm^3
- Tumour surface, overall values (Mean) [1, 5]: 29.88 mm^2
- Tumour volume, overall values (Mean) [1, 5]: 94.56 mm^3
- Tumour surface, overall values (Mean) [1, 6]: 57.06 mm^2
- Tumour surface, overall values (Median) [1, 6]: 36 mm^2
- Tumour volume, overall values (Mean) [1, 6]: 246.03 mm^3
- Tumour volume, overall values (Median) [1, 6]: 108 mm^3
- Tumour surface, overall values (Mean) [1, 7]: 81.38 mm^2
- Tumour surface, overall values (Median) [1, 7]: 64 mm^2
- Tumour volume, overall values (Mean) [1, 7]: 393.25 mm^3
- Tumour volume, overall values (Median) [1, 7]: 256 mm^3
- Tumour surface, overall values (Mean) [1, 8]: 113.5 mm^2
- Tumour surface, overall values (Median) [1, 8]: 105.5 mm^2
- Tumour volume, overall values (Mean) [1, 8]: 611.75 mm^3
- Tumour volume, overall values (Median) [1, 8]: 446.75 mm^3
- Tumour surface, overall values (Mean) [1, 9]: 135.31 mm^2
- Tumour surface, overall values (Median) [1, 9]: 132.5 mm^2
- Tumour volume, overall values (Mean) [1, 9]: 777.53 mm^3
- Tumour volume, overall values (Median) [1, 9]: 628.75 mm^3
- Tumour surface, overall values (Mean) [1, 10]: 168.81 mm^2
- Tumour surface, overall values (Median) [1, 10]: 170.5 mm^2
- Tumour volume, overall values (Mean) [1, 10]: 1068.3 mm^3
- Tumour volume, overall values (Median) [1, 10]: 937.75 mm^3
- Tumour surface, overall values (Mean) [1, 11]: 214.44 mm^2
- Tumour surface, overall values (Median) [1, 11]: 227.5 mm^2
- Tumour volume, overall values (Mean) [1, 11]: 1504.7 mm^3
- Tumour volume, overall values (Median) [1, 11]: 1478.8 mm^3
- KLN 205 tumour growth vs. placebo, tendency in words ([1]; either in surface or volume, all days scored after day 31th, t-test): significant tendency
- Differences in KLN 205 tumour growth rate vs. placebo, in words ([1]; t-test, 250 ng i.p.): not differences
- Inhibition of the in vivo growth of Lewis lung tumour in inbred mice, in words ([2]; 9d 250 ng, Cisplatin 65 μg i.p.): inhibit the in vivo growth
- SURFACE Overall values (Mean) [2, 12]: 0 mm^2
- SURFACE Overall values (Median) [2, 12]: 0 mm^2
- VOLUME Overall values (Mean) [2, 12]: 0 mm^3
- VOLUME Overall values (Median) [2, 12]: 0 mm^3
- SURFACE Overall values (Mean) [2, 13]: 2 mm^2
- SURFACE Overall values (Median) [2, 13]: 0 mm^2
- VOLUME Overall values (Mean) [2, 13]: 2.27 mm^3
- VOLUME Overall values (Median) [2, 13]: 0 mm^3
- SURFACE Overall values (Mean) [2, 14]: 6.47 mm^2
- SURFACE Overall values (Median) [2, 14]: 4 mm^2
- VOLUME Overall values (Mean) [2, 14]: 12.5 mm^3
- VOLUME Overall values (Median) [2, 14]: 4 mm^3
- SURFACE Overall values (Mean) [2, 15]: 20.13 mm^2
- SURFACE Overall values (Median) [2, 15]: 24 mm^2
- VOLUME Overall values (Mean) [2, 15]: 52.73 mm^3
- VOLUME Overall values (Median) [2, 15]: 48 mm^3
- SURFACE Overall values (Mean) [2, 16]: 34.33 mm^2
- SURFACE Overall values (Median) [2, 16]: 36 mm^2
- VOLUME Overall values (Mean) [2, 16]: 112.3 mm^3
- VOLUME Overall values (Median) [2, 16]: 108 mm^3
- SURFACE Overall values (Mean) [2, 17]: 60.6 mm^2
- SURFACE Overall values (Median) [2, 17]: 80 mm^2
- VOLUME Overall values (Mean) [2, 17]: 253.77 mm^3
- VOLUME Overall values (Median) [2, 17]: 320 mm^3
- SURFACE Overall values (Mean) [2, 18]: 104.8 mm^2
- SURFACE Overall values (Median) [2, 18]: 88 mm^2
- VOLUME Overall values (Mean) [2, 18]: 557.13 mm^3
- VOLUME Overall values (Median) [2, 18]: 364.5 mm^3
- SURFACE Overall values (Mean) [2, 19]: 141.8 mm^2
- SURFACE Overall values (Median) [2, 19]: 130 mm^2
- VOLUME Overall values (Mean) [2, 19]: 887.17 mm^3
- VOLUME Overall values (Median) [2, 19]: 665.5 mm^3
- Differences in Lewis Lung tumour growth rate vs. placebo, statistical significance p (Mann-Whitney U test) ([2]; either in surface or volume, all days scored after the day 13th): < 0.05
